The record followed here is ChEMBL document CHEMBL4402511, “Development of covalent antagonists for β1- and β2-adrenergic receptors” (Bioorg Med Chem, 2019).

Each structure is given as a SMILES string.

Assay [1] has as its target Beta-1 adrenergic receptor (Mus musculus, UniProt P34971). In words: Displacement of [3H]CGP12177 from mouse beta1 adrenoceptor expressed in HEK293T cell membranes.
Assay [2] addresses Beta-2 adrenergic receptor (Homo sapiens, UniProt P07550). Description: Displacement of [3H]CGP12177 from human beta2 adrenoceptor expressed in CHO cell membranes. (Loss of bound radioactivity is the signal in a displacement assay; it reports binding, not function.)
For assay [3], the species on record is Mus musculus. In words: Covalent binding affinity to mouse beta1 adrenoceptor I2.64C mutant expressed in HEK293T cell membranes assessed as covalent blockage of binding site at 1 uM measured after 120 mins by [3H]CGP12177 binding based radioligand depletion assay relative to control.
The species entered for assay [4] is Homo sapiens. In words: (§1) Displacement of [3H]CGP12177 from human beta2 adrenoceptor H2.64C mutant expressed in HEK293T cell membranes.
For assay [5], the species on record is Homo sapiens. In words: Covalent binding affinity to human beta2 adrenoceptor H2.64C mutant expressed in HEK293T cell membranes assessed as covalent blockage of binding site at 1 uM measured after 120 mins by [3H]CGP12177 binding based radioligand depletion assay relative to control.
Assay [6] is described as follows: Selectivity index, ratio of Ki for displacement of [3H]CGP12177 from human beta2 adrenoceptor expressed in CHO cell membranes to Ki for displacement of [3H]CGP12177 from mouse beta1 adrenoceptor expressed in HEK293T cell membranes.
The species entered for assay [7] is Mus musculus. Description: (§2) Displacement of [3H]CGP12177 from mouse beta1 adrenoceptor I2.64C mutant expressed in HEK293T cell membranes.
Assay [8] can be described thus: as §1.
Assay [9] is filed under the species Homo sapiens. In words: Covalent binding affinity to human beta2 adrenoceptor H2.64C mutant expressed in HEK293T cell membranes assessed as covalent blockage of binding site at 50 nM measured after 30 mins by [3H]CGP12177 binding based radioligand depletion assay relative to control.
The species entered for assay [10] is Homo sapiens. Description: Covalent binding affinity to human beta2 adrenoceptor H2.64C mutant expressed in HEK293T cell membranes assessed as covalent blockage of binding site at 50 nM measured after 120 mins by [3H]CGP12177 binding based radioligand depletion assay relative to control.
Assay [11] is filed under the species Homo sapiens. In words: Covalent binding affinity to human beta2 adrenoceptor H2.64C mutant expressed in HEK293T cell membranes assessed as covalent blockage of binding site at 50 nM measured after 15 mins by [3H]CGP12177 binding based radioligand depletion assay relative to control.
Assay [12] is filed under the species Homo sapiens. Description: Covalent binding affinity to human beta2 adrenoceptor H2.64C mutant expressed in HEK293T cell membranes assessed as covalent blockage of binding site at 50 nM measured after 90 mins by [3H]CGP12177 binding based radioligand depletion assay relative to control.
Assay [13] can be described thus: as §2.
The species named for assay [14] is Mus musculus. Description: Covalent binding affinity to mouse beta1 adrenoceptor I2.64C mutant expressed in HEK293T cell membranes assessed as covalent blockage of binding site at 50 nM measured after 120 mins by [3H]CGP12177 binding based radioligand depletion assay relative to control.
The species entered for assay [15] is Homo sapiens. In words: Covalent binding affinity to human beta2 adrenoceptor H2.64C mutant expressed in HEK293T cell membranes assessed as covalent blockage of binding site at 5 nM measured within 15 mins by [3H]CGP12177 binding based radioligand depletion assay relative to control.
Assay [16] is filed under the species Homo sapiens. Description: Covalent binding affinity to human beta2 adrenoceptor H2.64C mutant expressed in HEK293T cell membranes assessed as covalent blockage of binding site at 5 nM measured after 30 mins by [3H]CGP12177 binding based radioligand depletion assay relative to control.
Assay [17] is filed under the species Homo sapiens. Description: Covalent binding affinity to human beta2 adrenoceptor H2.64C mutant expressed in HEK293T cell membranes assessed as covalent blockage of binding site measured after 15 mins by [3H]CGP12177 binding based radioligand depletion assay relative to control.
Assay [18] is filed under the species Homo sapiens. Description: Covalent binding affinity to human beta2 adrenoceptor H2.64C mutant expressed in HEK293T cell membranes assessed as covalent blockage of binding site at 80 nM measured after 30 mins by [3H]CGP12177 binding based radioligand depletion assay relative to control.
Assay [19] is filed under the species Homo sapiens. In words: Covalent binding affinity to human beta2 adrenoceptor H2.64C mutant expressed in HEK293T cell membranes assessed as covalent blockage of binding site at 1 nM measured after 15 mins by [3H]CGP12177 binding based radioligand depletion assay relative to control.
Assay [20] is filed under the species Homo sapiens. Description: Covalent binding affinity to human beta2 adrenoceptor H2.64C mutant expressed in HEK293T cell membranes assessed as covalent blockage of binding site at 1 nM measured after 90 mins by [3H]CGP12177 binding based radioligand depletion assay relative to control.

Beta-1 adrenergic receptor, sequence (P34971 whole entry): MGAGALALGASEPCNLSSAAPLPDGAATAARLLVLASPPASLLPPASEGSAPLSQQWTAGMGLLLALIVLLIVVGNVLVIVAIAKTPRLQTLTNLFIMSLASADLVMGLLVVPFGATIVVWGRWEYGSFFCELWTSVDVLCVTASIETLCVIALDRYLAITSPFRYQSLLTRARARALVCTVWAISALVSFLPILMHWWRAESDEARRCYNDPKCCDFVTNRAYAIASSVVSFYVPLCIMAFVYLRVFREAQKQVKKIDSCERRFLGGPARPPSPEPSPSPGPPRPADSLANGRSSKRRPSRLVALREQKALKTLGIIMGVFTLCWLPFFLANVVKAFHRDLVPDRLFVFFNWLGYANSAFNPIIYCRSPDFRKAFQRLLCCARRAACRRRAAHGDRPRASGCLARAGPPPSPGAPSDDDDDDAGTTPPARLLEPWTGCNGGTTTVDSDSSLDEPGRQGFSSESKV
Beta-2 adrenergic receptor, sequence (P07550 whole entry): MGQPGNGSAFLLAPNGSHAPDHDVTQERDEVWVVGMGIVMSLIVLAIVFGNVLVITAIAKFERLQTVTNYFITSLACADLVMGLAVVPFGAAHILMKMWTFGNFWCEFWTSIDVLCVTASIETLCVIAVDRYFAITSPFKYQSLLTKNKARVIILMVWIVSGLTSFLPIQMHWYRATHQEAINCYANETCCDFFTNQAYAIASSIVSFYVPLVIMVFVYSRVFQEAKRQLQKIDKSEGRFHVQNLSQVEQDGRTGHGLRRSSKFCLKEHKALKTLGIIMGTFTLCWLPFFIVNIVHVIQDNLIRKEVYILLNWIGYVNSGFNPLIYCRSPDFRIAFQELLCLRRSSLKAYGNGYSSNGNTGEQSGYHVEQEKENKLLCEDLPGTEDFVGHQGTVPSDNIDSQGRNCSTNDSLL

Broadly, the Ki is the equilibrium dissociation constant of an inhibitor or competing ligand from its target. The low end stands for tighter binding, the high end for weaker binding. `Cn1cc(C(F)(F)F)nc1-c1ccc(OCC(O)CNCCOc2ccc(O)c(C(N)=O)c2)cc1` (centres undefined) [CGP-20712A] came in with a Ki in assay [1] of 1.4 nM.
Still for that read-out and setting: the same measure for `CC(C)NCC(O)COc1ccc(COCCOC(C)C)cc1` (racemic) [BISOPROLOL]: 5.3 nM.
In the case of `Cn1cc(C(F)(F)F)nc1-c1ccc(OC[C@@H](O)CNCCOc2ccc(OCCCSSCCN)c(C(N)=O)c2)cc1`, the Ki in [1] is 71 nM; in [2], 1400 nM. Moreover, the Activity in the assay filed under Mus musculus [3] and in the assay listed under Homo sapiens [5] was 53 to 67% throughout. Also, the KiH in the assay listed under Homo sapiens [4] turned out to be 77 nM; in the assay listed under Mus musculus [7], 3.1 nM. Further, the KiL worked out at 3.6 µM in the assay listed under Homo sapiens [4] and 480 nM in the assay filed under Mus musculus [7]. In addition, in assay [6], the Ratio Ki turned out to be 20.
With `Cn1cc(C(F)(F)F)nc1-c1ccc(OC[C@@H](O)CNCCOc2ccc(OCCSSCCN)c(C(N)=O)c2)cc1`, the figures for the Ki in [1] and in [2] were 49 nM and 2000 nM, respectively. In addition, the values for the Activity in the assay filed under Mus musculus [3] and in the assay filed under Homo sapiens [5] were 74% and 79%, respectively. Moreover, the KiH came out at 36 nM in the assay listed under Homo sapiens [4] and 0.071 nM in the assay listed under Mus musculus [7]. The KiL was determined as 8.4 µM in the assay filed under Homo sapiens [4] and 270 nM in the assay filed under Mus musculus [7]. Further, in assay [6], the Ratio Ki came out at 41.
Take `COCCc1ccc(OC[C@H](O)CNCCc2ccc(OCCSSCCN)c(OC)c2)cc1`: the inhibitory constant (Ki) turned out to be 740 nM in assay [1], 1300 nM in [2] and 66 nM in [8]. Further, the Ratio Ki in assay [6] came to 1.8.
On to `COCCc1ccc(OC[C@@H](O)CNCCc2ccc(OCCCSSCCN)c(OC)c2)cc1`, for which the figures for the inhibition constant (Ki) in assay [1], in assay [2] and in assay [8] were 22 nM, 20 nM and 1.5 nM, respectively. Moreover, the Activity in the assay filed under Homo sapiens [9] and in the assay filed under Homo sapiens [10] was 100% throughout. For the same molecule, the Ratio Ki in assay [6] is 0.91.
In the case of `COc1cc(CCNC[C@H](O)COc2ccc(COCCOC(C)C)cc2)ccc1OCCSSCCN`, the Ki in [1] came to 2.6 nM; in assay [2], 51 nM; in assay [8], 0.26 nM; in assay [13], 2 nM. Also, the Activity in the assay listed under Homo sapiens [11] was 84 to 92%; in the assay listed under Homo sapiens [12] it was below 100%; in the assay filed under Mus musculus [14], 64 to 76%. In addition, in assay [6], the Ratio Ki is 20.
For the molecule `COc1cc(CCNC[C@@H](O)COc2cccc3ccccc23)ccc1OCCSSCCN`, the figures for the inhibition constant (Ki) in assay [1], in assay [2] and in assay [8] were 29 nM, 3.4 nM and 0.75 nM, respectively. In assay [6], the Ratio Ki is 0.12.
For `COc1cc(CCNC[C@H](O)COc2cccc3ccccc23)ccc1OCCSSCCN`, the inhibition constant Ki in assay [1] is 0.49 nM; in assay [2], 0.16 nM; in assay [8] it was 0.083 nM. The values for the Activity in the assay listed under Homo sapiens [15] and in the assay listed under Homo sapiens [16] were 77 to 92% and 100%, respectively. Moreover, the Ratio Ki in [6] worked out at 0.33.
For the molecule `COc1cc(CCNC[C@H](O)c2ccc(O)c(O)c2)ccc1OCCSSCCN`, the Activity in the assay listed under Homo sapiens [17] came out at 71%.
With `COc1cc(CCNC[C@@H](O)COc2cccc3ccccc23)ccc1OCCCSSCCN`, the values for the Ki in [1], in [2] and in [8] were 33 nM, 1.1 nM and 1.2 nM, respectively. The Ratio Ki in assay [6] turned out to be 0.033.
Turning to `COCCc1ccc(OC[C@@H](O)CNCCc2ccc(OCCSSCCN)c(OC)c2)cc1`, the Ki in assay [1] was 27 nM; in assay [2], 57 nM; in [8], 3.8 nM. For the same molecule, the Activity in the assay listed under Homo sapiens [18] came to 100%. Also, the Ratio Ki in [6] amounted to 2.1.
As to `COc1cc(CCNC[C@H](O)COc2ccc(-c3nc(C(F)(F)F)cn3C)cc2)ccc1OCCSSCCN`, the results for the Ki in assay [1] and in assay [2] were 150 nM and 2200 nM, respectively. The figures for the Activity in the assay filed under Homo sapiens [19], in the assay filed under Homo sapiens [20] and in the assay filed under Mus musculus [14] were 84 to 92%, below 100% and 64 to 76%, respectively. Besides, the KiH worked out at 3.6 nM in the assay listed under Homo sapiens [4] and 0.56 nM in the assay listed under Mus musculus [7]. For the same molecule, the KiL was 2.5 µM in the assay listed under Homo sapiens [4] and 280 nM in the assay listed under Mus musculus [7]. In assay [6], the Ratio Ki came to 15.
As to `COc1cc(CCNC[C@H](O)COc2cccc3ccccc23)ccc1OCCCSSCCN`, the Ki in assay [1] turned out to be 1.1 nM; in assay [2], 0.073 nM; in assay [8] it was 0.18 nM. For the same molecule, the values for the Activity in the assay filed under Homo sapiens [15] and in the assay filed under Homo sapiens [16] were 77 to 92% and 100%, respectively. For the same molecule, in assay [6], the Ratio Ki was determined as 0.066.
In turn, `COCCc1ccc(OCC(O)CNC(C)C)cc1` (racemic) [METOPROLOL] returned an inhibitory constant (Ki) in assay [1] of 49 nM.
Take `COCCc1ccc(OC[C@H](O)CNCCc2ccc(OCCCSSCCN)c(OC)c2)cc1`: the results for the Ki in assay [1], in assay [2] and in [8] were 220 nM, 320 nM and 26 nM, respectively. In addition, the Ratio Ki in [6] was 1.5.
